Results taken from ChEMBL document CHEMBL3885881, “DrugMatrix”.

Organism: Rattus norvegicus
Format: toxicity, organism-based, Sprague-Dawley
Conditions: in vivo, po, route oral GAVAGE, vehicle 100 % SALINE; for ABSOLUTE EOSINOPHIL / ABSOLUTE LYMPHOCYTE / ABSOLUTE MONOCYTE / ABSOLUTE SEGMENTED NEUTROPHIL / BASOPHIL / EOSINOPHIL / ERYTHROCYTE COUNT / HEMATOCRIT / HEMOGLOBIN / LEUKOCYTE COUNT / LYMPHOCYTE / MEAN CORPUSCULAR HEMOGLOBIN / MEAN CORPUSCULAR HEMOGLOBIN CONCENTRATION / MEAN CORPUSCULAR VOLUME / MONOCYTE / NEUTROPHIL / NUCLEATED RED BLOOD CELLS / PLATELET COUNT: tissue Blood; for ALANINE AMINOTRANSFERASE / ALBUMIN / ALKALINE PHOSPHATASE / ASPARTATE AMINOTRANSFERASE / BLOOD UREA NITROGEN / CARBON DIOXIDE / CHLORIDE / CHOLESTEROL / CREATINE PHOSPHOKINASE / CREATININE / GLUCOSE / LACTATE DEHYDROGENASE / LIPASE / PHOSPHORUS / POTASSIUM / SODIUM / TOTAL BILIRUBIN / TOTAL PROTEIN / URIC ACID: tissue Plasma
[1] = 0 mg/kg, 6 h, dose level Control, time 0.25 day
[2] = 0 mg/kg, 24 h, dose level Control, time 1 day
[3] = 3000 mg/kg, 6 h, dose level Low, time 0.25 day

Description: DrugMatrix - Regimen: Single

CCO [ALCOHOL]
ABSOLUTE EOSINOPHIL [1]: 24 CELLS/uL | ABSOLUTE LYMPHOCYTE [1]: 11958.17 CELLS/uL | ABSOLUTE MONOCYTE [1]: 398.83 CELLS/uL | ABSOLUTE SEGMENTED NEUTROPHIL [1]: 1252.33 CELLS/uL | BASOPHIL [1]: 0% | EOSINOPHIL [1]: 0.17% | ERYTHROCYTE COUNT [1]: 5.37 x10E6/uL | HEMATOCRIT [1]: 35.6% | HEMOGLOBIN [1]: 13.05 G/DL | LEUKOCYTE COUNT [1]: 13.63 x10E3/uL | LYMPHOCYTE [1]: 87.67% | MEAN CORPUSCULAR HEMOGLOBIN [1]: 24.28 pg | MEAN CORPUSCULAR HEMOGLOBIN CONCENTRATION [1]: 36.67 G/DL | MEAN CORPUSCULAR VOLUME [1]: 66.28 fL | MONOCYTE [1]: 2.83% | NEUTROPHIL [1]: 9.33% | NUCLEATED RED BLOOD CELLS [1]: 0 /100WBC | PLATELET COUNT [1]: 947.83 x10E3/uL | ALANINE AMINOTRANSFERASE [1]: 51 u/L | ALBUMIN [1]: 4.02 G/DL | ALKALINE PHOSPHATASE [1]: 312.33 u/L | ASPARTATE AMINOTRANSFERASE [1]: 98.17 u/L | BLOOD UREA NITROGEN [1]: 9.5 mg/dL | CARBON DIOXIDE [1]: 18.83 mmol/L | CHLORIDE [1]: 103.5 MEQ/L | CHOLESTEROL [1]: 69.5 mg/dL | CREATINE PHOSPHOKINASE [1]: 580.17 u/L | CREATININE [1]: 0.53 mg/dL | GLUCOSE [1]: 175.67 mg/dL | LACTATE DEHYDROGENASE [1]: 295.5 u/L | LIPASE [1]: 8.17 u/L | PHOSPHORUS [1]: 14.12 mg/dL | POTASSIUM [1]: 5.77 MEQ/L | SODIUM [1]: 144.13 MEQ/L | TOTAL BILIRUBIN [1]: 0.12 mg/dL | TOTAL PROTEIN [1]: 4.87 G/DL | URIC ACID [1]: 2.25 mg/dL | ABSOLUTE EOSINOPHIL [2]: 0 CELLS/uL | ABSOLUTE LYMPHOCYTE [2]: 12232.83 CELLS/uL | ABSOLUTE MONOCYTE [2]: 20.33 CELLS/uL | ABSOLUTE SEGMENTED NEUTROPHIL [2]: 780.17 CELLS/uL | BASOPHIL [2]: 0% | EOSINOPHIL [2]: 0% | ERYTHROCYTE COUNT [2]: 5.18 x10E6/uL | HEMATOCRIT [2]: 33.48% | HEMOGLOBIN [2]: 13.22 G/DL | LEUKOCYTE COUNT [2]: 13.03 x10E3/uL | LYMPHOCYTE [2]: 93.33% | MEAN CORPUSCULAR HEMOGLOBIN [2]: 25.57 pg | MEAN CORPUSCULAR HEMOGLOBIN CONCENTRATION [2]: 39.52 G/DL | MEAN CORPUSCULAR VOLUME [2]: 64.65 fL | MONOCYTE [2]: 0.17% | NEUTROPHIL [2]: 6.5% | NUCLEATED RED BLOOD CELLS [2]: 0 /100WBC | PLATELET COUNT [2]: 931.5 x10E3/uL | ALANINE AMINOTRANSFERASE [2]: 60.83 u/L | ALBUMIN [2]: 4.18 G/DL | ALKALINE PHOSPHATASE [2]: 283.33 u/L | ASPARTATE AMINOTRANSFERASE [2]: 80.5 u/L | BLOOD UREA NITROGEN [2]: 11.83 mg/dL | CARBON DIOXIDE [2]: 35.33 mmol/L | CHLORIDE [2]: 98.5 MEQ/L | CHOLESTEROL [2]: 80 mg/dL | CREATINE PHOSPHOKINASE [2]: 181.83 u/L | CREATININE [2]: 0.2 mg/dL | GLUCOSE [2]: 142.67 mg/dL | LACTATE DEHYDROGENASE [2]: 65.5 u/L | LIPASE [2]: 9.83 u/L | PHOSPHORUS [2]: 9.82 mg/dL | POTASSIUM [2]: 5.69 MEQ/L | SODIUM [2]: 143.35 MEQ/L | TOTAL BILIRUBIN [2]: 0.15 mg/dL | TOTAL PROTEIN [2]: 6.2 G/DL | URIC ACID [2]: 0.42 mg/dL | ABSOLUTE EOSINOPHIL [3]: 17.33 CELLS/uL | ABSOLUTE LYMPHOCYTE [3]: 12297.17 CELLS/uL | ABSOLUTE MONOCYTE [3]: 395.33 CELLS/uL | ABSOLUTE SEGMENTED NEUTROPHIL [3]: 1356.83 CELLS/uL | BASOPHIL [3]: 0% | EOSINOPHIL [3]: 0.17% | ERYTHROCYTE COUNT [3]: 5.49 x10E6/uL | HEMATOCRIT [3]: 36.33% | HEMOGLOBIN [3]: 13.27 G/DL | LEUKOCYTE COUNT [3]: 14.07 x10E3/uL | LYMPHOCYTE [3]: 87% | MEAN CORPUSCULAR HEMOGLOBIN [3]: 24.23 pg | MEAN CORPUSCULAR HEMOGLOBIN CONCENTRATION [3]: 36.55 G/DL | MEAN CORPUSCULAR VOLUME [3]: 66.38 fL | MONOCYTE [3]: 2.67% | NEUTROPHIL [3]: 10.17% | NUCLEATED RED BLOOD CELLS [3]: 0 /100WBC | PLATELET COUNT [3]: 1109.83 x10E3/uL | ALANINE AMINOTRANSFERASE [3]: 45.5 u/L | ALBUMIN [3]: 4.27 G/DL | ALKALINE PHOSPHATASE [3]: 279.17 u/L | ASPARTATE AMINOTRANSFERASE [3]: 96.17 u/L | BLOOD UREA NITROGEN [3]: 11 mg/dL | CARBON DIOXIDE [3]: 19.5 mmol/L | CHLORIDE [3]: 105.33 MEQ/L | CHOLESTEROL [3]: 63.33 mg/dL | CREATINE PHOSPHOKINASE [3]: 339.67 u/L | CREATININE [3]: 0.17 mg/dL | GLUCOSE [3]: 173 mg/dL | LACTATE DEHYDROGENASE [3]: 354.67 u/L | LIPASE [3]: 10 u/L | PHOSPHORUS [3]: 15.83 mg/dL | POTASSIUM [3]: 6.29 MEQ/L | SODIUM [3]: 146.3 MEQ/L | TOTAL BILIRUBIN [3]: 0.0667 mg/dL | TOTAL PROTEIN [3]: 5.62 G/DL | URIC ACID [3]: 2.12 mg/dL
